Laboratory results from US20070128217A1 (priority 2003, published 2007).

Assays:
[1] = system: rabbit serum obtained by immunizing a rabbit with the SARS-CoV strain Frankfurt 1; assay type: binding; parameters: Binding of a rabbit serum to linear peptides / Binding of a rabbit serum to looped peptides / Rabbit serum linear peptides / Rabbit serum looped peptides / Binding of a rabbit serum to linear peptides of protein N of SARS-CoV Urbani (Rabbit serum linear peptides) / Binding of a rabbit serum to looped/cyclic peptides of protein N of SARS-CoV Urbani (Rabbit serum looped peptides): unit not given here
[2] = system: control sera (pooled serum of ten healthy LUMC hospital workers; commercial negative donor pooled serum from the Dutch bloodbank); assay type: binding, human; parameters: Binding of Control serum LUMC to linear peptides / Binding of Control serum Blood-bank to linear peptides / Binding of Control serum LUMC to looped peptides / Binding of Control Serum Blood-Bank to Looped peptides / Binding of Control serum LUMC to linear peptides of the protein M of SARS-CoV Urbani / Binding of Control serum Blood-bank to linear peptides of the protein M of SARS-CoV Urbani / Binding of Control serum LUMC to looped peptides of the protein M of SARS-CoV Urbani / Binding of Control Serum Blood-Bank to Looped peptides of the protein M of SARS-CoV Urbani: unit not given here
[3] = system: antibodies in sera from SARS patients (sera 1a, 1b, 2, 6, 37, 62, London, SARS-yellow, SARS-green); assay type: binding, human; parameters: Binding of serum 6 to linear peptides of protein X1 of SARS-CoV Urbani / Binding of serum 37 to linear peptides of protein X1 of SARS-CoV Urbani / Binding of serum 6 to looped/cyclic peptide (PEPSCAN-ELISA) / Binding of serum 37 to looped/cyclic peptide (PEPSCAN-ELISA) / Binding of serum 37 to looped/cyclic peptides of protein X1 of SARS-CoV Urbani / Binding of serum 6 to linear peptides of protein X2 / Binding of serum 37 to linear peptides of protein X2 / Binding of serum 37 to looped/cyclic peptides of protein X2 of SARS-CoV Urbani / Binding of serum 6 to linear peptides of protein M of SARS-CoV Urbani / Binding of serum 37 to linear peptides of protein M of SARS-CoV Urbani / Binding of serum 6 to looped/cyclic peptides of protein M of SARS-CoV Urbani / Binding of serum 37 to looped/cyclic peptides of protein M of SARS-CoV Urbani / Binding of serum 6 to linear peptides of protein X3 of SARS-CoV Urbani / Binding of serum 37 to linear peptides of protein X3 of SARS-CoV Urbani / Binding of serum 37 to looped/cyclic peptides of protein X3 of SARS-CoV Urbani / Binding of serum 6 to linear peptides of protein X4 of SARS-CoV Urbani / Binding of serum 37 to linear peptides of protein X4 of SARS-CoV Urbani / Binding of serum 37 to looped/cyclic peptides of protein X4 of SARS-CoV Urbani / Binding of serum 6 to linear peptides of protein X5 of SARS-CoV Urbani / Binding of serum 37 to linear peptides of protein X5 of SARS-CoV Urbani / Binding of serum 37 to looped/cyclic peptides of protein X5 of SARS-CoV Urbani / Binding of serum 6 to linear peptides of protein N of SARS-CoV Urbani / Binding of serum 37 to linear peptides of protein N of SARS-CoV Urbani / Binding of serum 6 to linear peptide (PEPSCAN-ELISA) / Binding of serum 1a to looped/cyclic peptides of protein N of SARS-CoV Urbani / Binding of serum 1b to looped/cyclic peptides of protein N of SARS-CoV Urbani / Binding of serum 2 to looped/cyclic peptides of protein N of SARS-CoV Urbani / Binding of serum 6 to looped/cyclic peptides of protein N of SARS-CoV Urbani / Binding of serum 37 to looped/cyclic peptides of protein N of SARS-CoV Urbani / Binding of serum 62 to looped/cyclic peptides of protein N of SARS-CoV Urbani / Binding of serum London to looped/cyclic peptides of protein N of SARS-CoV Urbani / Binding of serum SARS-green to looped/cyclic peptides of protein N of SARS-CoV Urbani: unit not given here

FLIVAALVFLILCFT
Rabbit serum linear peptides [1]: 0.4
Rabbit serum looped peptides [1]: 0.3
Binding of Control Serum Blood-Bank to Looped peptides [2]: 0.7
Binding of Control serum Blood-bank to linear peptides [2]: 0.4
Binding of Control serum LUMC to linear peptides [2]: 0.4
Binding of Control serum LUMC to looped peptides [2]: 0.6
Binding of serum 1a to linear peptides of protein X4 of SARS-CoV Urbani [3]: 0.6
Binding of serum 1a to looped/cyclic peptides of protein X4 of SARS-CoV Urbani [3]: 0.7
Binding of serum 1b to linear peptides of protein X4 of SARS-CoV Urbani [3]: 0.5
Binding of serum 1b to looped/cyclic peptides of protein X4 of SARS-CoV Urbani [3]: 0.4
Binding of serum 2 to linear peptides of protein X4 of SARS-CoV Urbani [3]: 0.4
Binding of serum 2 to looped/cyclic peptides of protein X4 of SARS-CoV Urbani [3]: 0.7
Binding of serum 6 to linear peptides of protein X4 of SARS-CoV Urbani [3]: 0.5
Binding of serum 6 to looped/cyclic peptides of protein X4 of SARS-CoV Urbani [3]: 0.4
Binding of serum 37 to linear peptides of protein X4 of SARS-CoV Urbani [3]: 0.7
Binding of serum 37 to looped/cyclic peptides of protein X4 of SARS-CoV Urbani [3]: 0.7
Binding of serum 62 to linear peptides of protein X4 of SARS-CoV Urbani [3]: 0.7
Binding of serum 62 to looped/cyclic peptides of protein X4 of SARS-CoV Urbani [3]: 0.6
Binding of serum London to linear peptides of protein X4 of SARS-CoV Urbani [3]: 0.6
Binding of serum London to looped/cyclic peptides of protein X4 of SARS-CoV Urbani [3]: 0.3
Binding of serum SARS-green to linear peptides of protein X4 of SARS-CoV Urbani [3]: 0.5
Binding of serum SARS-green to looped/cyclic peptides of protein X4 of SARS-CoV Urbani [3]: 0.5
Binding of serum SARS-yellow to linear peptides of protein X4 of SARS-CoV Urbani [3]: 0.7
Binding of serum SARS-yellow to looped/cyclic peptides of protein X4 of SARS-CoV Urbani [3]: 0.5

AAFRDVLVVLNKRTN
Rabbit serum linear peptides [1]: 0.5
Rabbit serum looped peptides [1]: 0.6
Binding of Control Serum Blood-Bank to Looped peptides [2]: 0.7
Binding of Control serum Blood-bank to linear peptides [2]: 0.6
Binding of Control serum LUMC to linear peptides [2]: 0.8
Binding of Control serum LUMC to looped peptides [2]: 0.4
Binding of serum 1a to linear peptides of protein X5 of SARS-CoV Urbani [3]: 0.6
Binding of serum 1a to looped/cyclic peptides of protein X5 of SARS-CoV Urbani [3]: 0.6
Binding of serum 1b to linear peptides of protein X5 of SARS-CoV Urbani [3]: 0.6
Binding of serum 1b to looped/cyclic peptides of protein X5 of SARS-CoV Urbani [3]: 0.4
Binding of serum 2 to linear peptides of protein X5 of SARS-CoV Urbani [3]: 0.6
Binding of serum 2 to looped/cyclic peptides of protein X5 of SARS-CoV Urbani [3]: 0.6
Binding of serum 6 to linear peptides of protein X5 of SARS-CoV Urbani [3]: 0.8
Binding of serum 6 to looped/cyclic peptides of protein X5 of SARS-CoV Urbani [3]: 0.8
Binding of serum 37 to linear peptides of protein X5 of SARS-CoV Urbani [3]: 0.5
Binding of serum 37 to looped/cyclic peptides of protein X5 of SARS-CoV Urbani [3]: 0.6
Binding of serum 62 to linear peptides of protein X5 of SARS-CoV Urbani [3]: 0.4
Binding of serum 62 to looped/cyclic peptides of protein X5 of SARS-CoV Urbani [3]: 0.5
Binding of serum London to linear peptides of protein X5 of SARS-CoV Urbani [3]: 0.6
Binding of serum London to looped/cyclic peptides of protein X5 of SARS-CoV Urbani [3]: 1.0
Binding of serum SARS-green to linear peptides of protein X5 of SARS-CoV Urbani [3]: 0.1
Binding of serum SARS-green to looped/cyclic peptides of protein X5 of SARS-CoV Urbani [3]: 0.4
Binding of serum SARS-yellow to linear peptides of protein X5 of SARS-CoV Urbani [3]: 0.8
Binding of serum SARS-yellow to looped/cyclic peptides of protein X5 of SARS-CoV Urbani [3]: 0.3

KDYVVVHGYFTEVYY
Binding of a rabbit serum to linear peptides [1]: 0.1
Binding of a rabbit serum to looped peptides [1]: 0.5
Binding of Control Serum Blood-Bank to Looped peptides [2]: 0.5
Binding of Control serum Blood-bank to linear peptides [2]: 0.5
Binding of Control serum LUMC to linear peptides [2]: 0.6
Binding of Control serum LUMC to looped peptides [2]: 0.5
Binding of serum 1a to linear peptides of protein X1 of SARS-CoV Urbani [3]: 0.7
Binding of serum 1a to looped/cyclic peptides of protein X1 of SARS-CoV Urbani [3]: 0.5
Binding of serum 1b to linear peptides of protein X1 of SARS-CoV Urbani [3]: 0.6
Binding of serum 1b to looped/cyclic peptides of protein X1 of SARS-CoV Urbani [3]: 0.4
Binding of serum 2 to linear peptides of protein X1 of SARS-CoV Urbani [3]: 0.5
Binding of serum 2 to looped/cyclic peptides of protein X1 of SARS-CoV Urbani [3]: 0.4
Binding of serum 6 to linear peptides of protein X1 of SARS-CoV Urbani [3]: 0.4
Binding of serum 6 to looped/cyclic peptides of protein X1 of SARS-CoV Urbani [3]: 0.2
Binding of serum 37 to linear peptides of protein X1 of SARS-CoV Urbani [3]: 0.6
Binding of serum 37 to looped/cyclic peptides of protein X1 of SARS-CoV Urbani [3]: 0.6
Binding of serum 62 to linear peptides of protein X1 of SARS-CoV Urbani [3]: 0.5
Binding of serum 62 to looped/cyclic peptides of protein X1 of SARS-CoV Urbani [3]: 0.5
Binding of serum London to linear peptides of protein X1 of SARS-CoV Urbani [3]: 0.2
Binding of serum London to looped/cyclic peptides of protein X1 of SARS-CoV Urbani [3]: 0.2
Binding of serum SARS-green to linear peptides of protein X1 of SARS-CoV Urbani [3]: 0.2
Binding of serum SARS-green to looped/cyclic peptides of protein X1 of SARS-CoV Urbani [3]: 0.2
Binding of serum SARS-yellow to linear peptides of protein X1 of SARS-CoV Urbani [3]: 0.3
Binding of serum SARS-yellow to looped/cyclic peptides of protein X1 of SARS-CoV Urbani [3]: 0.5
